Experimental data published in patent US12319913B2, “5-halouracil-modified microRNAs and their use in the treatment of cancer” (The Research Foundation for The State University of New York, priority 2018, dated 2025).
[5FU] = 5-fluorouracil base replacing uracil

Assays:
[1] = system: HCT116, RKO, SW480, and SW620 colon cancer cells; assay: FITC-Annexin V apoptosis assay; design: species or system human; conditions: FACS-based FITC-Annexin assay, all 4 colon cancer cell lines, compared to native miR-129 and negative control miRNA
Method: Apoptosis Assay. To distinguish between early and late apoptosis, a fluorescein isothiocyanate (FITC)—Annexin assay was done (Becton Dickinson). HCT116, RKO, SW480 and SW620 cells were plated into 6 well plates (1×10^5) cells per well, after 24 h, cells were transfected with 25 nM modified miRNAs using Oligofectamine. Forty-eight hours after transfection, cells were harvested, stained with propidium iodide and anti-annexin-V antibody (Annexin V-FITC Apoptosis Detection kit, Invitrogen, CA, USA) following the manufacturer's protocol, and stained cells were detected by flow cytometry.

SW480 colon cancer cells = assay: WST-1 cell proliferation assay, SW480; format: cell-based, human; conditions: SW480, in words, vs controls
Method: For transfections, 1×10^5 cells were plated in six-well plates and transfected with 100 nM of control non-specific miRNA (Thermo Fischer), a modified microRNA, or exogenous native microRNA after 24 hours using Oligofectamine (Thermo Fischer) following the manufacturer's protocols. For reagent free transfection, cells were plated in 6 well plates at (1×10^5) cells per well. Twenty-four hours later 100 pmol miRNA (Control, miR-15a, Mimic-1) were diluted in Optimem (Thermo Fischer) and added to the plate. Media was changed after 24 hours. Media was supplemented with 10% fetal bovine serum (Thermo Fischer). Briefly, cells were cultured in growth media (DMEM/F12 supplemented with B27, 10 ng/mL bFGF, and 20 ng/mL EGF (Life Technologies) in ultra-low attachment flasks) for up to 6 days. […]
Cell proliferation assay: Twenty-four hours after transfection, cells were seeded in 96-well plates at a density of 2000 cells per well. The cell proliferation assay was performed on days 1 to 5 by incubating 10 μl WST-1 (Roche Applied Science, Mannheim, Germany) in the culture medium for 1 h and reading the absorbance at 450 and 630 nm. The cell proliferation rate was calculated by subtracting the absorbance at 450 nm from the absorbance at 630 nm. […] The O.D. was calculated by subtracting the absorbance at 630 nm from that at 450 nm. […]

[2] = system: HCT-116 colon cancer cells; assay: 5-FU treatment and cytotoxicity assay (WST-1); format: cell-based, human; conditions: 50 nM modified miR-129 vs 2 μM 5-FU
Method: 5-FU treatment and cytotoxicity assay: Twenty-four hours after transfection, cancer cells were plated in 96-well plates at 2×10^3 cells per well in triplicates in 100 μL of medium. After 24 hours, fresh medium containing 2 μM 5-FU alone, 50 nM native microRNA, 50 nM modified microRNA (e.g., modified miR-129), or a combination of […] with 50 nM a modified microRNA of the present disclosure e.g., modified miR-129, were added, and cells were cultured for an additional 72 hours. Cell viability was measured using the WST-1 assay.

TS-FdUMP = target: T1, TS-FdUMP (Homo sapiens, UniProt P04818); assay: Western blot of TS-FdUMP in colon cancer cells; format: cell-based; conditions: colon/colorectal cancer cells
T1 construct: endogenous in cells
T1 sequence (P04818 2-313 limits assumed): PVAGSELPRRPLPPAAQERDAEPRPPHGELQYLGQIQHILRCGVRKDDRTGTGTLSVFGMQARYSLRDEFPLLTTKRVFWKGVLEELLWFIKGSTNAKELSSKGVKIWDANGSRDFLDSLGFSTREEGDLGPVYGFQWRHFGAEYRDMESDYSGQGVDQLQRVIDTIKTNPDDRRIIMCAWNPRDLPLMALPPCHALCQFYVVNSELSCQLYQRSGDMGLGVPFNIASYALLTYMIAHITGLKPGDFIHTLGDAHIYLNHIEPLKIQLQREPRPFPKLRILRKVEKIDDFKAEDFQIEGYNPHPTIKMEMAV
Method: (§1) Western immunoblot analysis: Forty-eight hours after transfection, equal amounts of protein (15 μg) extracted from cells lysed in RIPA buffer with protease inhibitor (Sigma) and were separated on 10%-12% sodium dodecyl sulfate-polyacrylamide gels using standard procedures. The primary antibodies used for the analysis were rabbit anti-YAP1 monoclonal antibody (1:10000) (Cell Signaling Technologies), anti-DLCK1 (1:500) (Abcam), anti-BCL2 (1:500) (NeoMarkers), anti-MDC1 (1:500), anti-SUZ12 (1:500), anti-pChk-1 (1:500), anti beta-actin (1:500), anti-BMI-1 (1:10000) (Cell Signaling Technologies), mouse anti-human TS antibody (1:500), anti-α-tubulin (1:50000) (Santa Cruz Biotech Inc.), anti-GAPDH (1:100000) (Santa Cruz Biotech Inc.), anti-E2F3 (1:500) (Santa Cruz Biotech Inc.), Horseradish peroxidase-conjugated antibodies against mouse or rabbit (1:5000, Santa Cruz Biotech Inc.) were used as the secondary antibodies. Protein bands were visualized with autoradiography film using SuperSignal West Pico Chemiluminescent Substrate (Thermo Fischer). Western blot density was quantified using Image J software.

TS, BCL2 and E2F3 = assay: Western immunoblot of miR-129 targets in HCT-116 cells; format: cell-based, human; conditions: colon cancer HCT-116 cells
Method: as §1

[3] = system: HCT116 derived colon cancer stem cells; format: cell-based
Method: For transfections, 1×10^5 cells were plated in six-well plates and transfected with 100 nM of control non-specific miRNA (Thermo Fischer), a modified microRNA, or exogenous native microRNA after 24 hours using Oligofectamine (Thermo Fischer) following the manufacturer's protocols. For reagent free transfection, cells were plated in 6 well plates at (1×10^5) cells per well. Twenty-four hours later 100 pmol miRNA (Control, miR-15a, Mimic-1) were diluted in Optimem (Thermo Fischer) and added to the plate. Media was changed after 24 hours. Media was supplemented with 10% fetal bovine serum (Thermo Fischer). Briefly, cells were cultured in growth media (DMEM/F12 supplemented with B27, 10 ng/mL bFGF, and 20 ng/mL EGF (Life Technologies) in ultra-low attachment flasks) for up to 6 days. The spheroid cells were maintained by collection through gentle centrifugation, dissociation to single cells and replating.
miR-129 mimics eliminated chemotherapy resistant colon cancer stem cells. To determine the impact of certain exemplary modified microRNAs of the present disclosure (i.e., miR-129 mimics) on 5-FU resistant colon cancer stem cells, HCT116 derived colon cancer stem cells were treated with various concentrations of Mimic-1 or 5-FU.

[4] = system: YAP1, BMI1, DCLK1 and BCL2; assay: Western blot of miR-15a targets in HCT-116 colon cancer stem cells; format: cell-based, human; conditions: three days following transfection
Method: as §1, with “[…],” for “Forty-eight hours after transfection,”, “software. […]” for “software.”

Row | Substance | induction of apoptosis [1] | inhibition of colon cancer cell proliferation (SW480 colon cancer cells) | inhibiting tumor cell proliferation, potency compared with 5-FU [2] | TS-FdUMP break down (TS-FdUMP) | target specificity to TS, BCL2 and E2F3 (TS, BCL2 and E2F3; Western immunoblot) | reducing the expression levels of TS, BCL2 and E2F3 (TS, BCL2 and E2F3; compared with unmodified (control) miR-129) | proliferation of HCT116 colon cancer stem cells ([3]; 25 nM, day 6) | elimination of 5-FU resistant colon cancer stem cells ([3]; 100 nM) | killing of 5-FU resistant cancer stem cells, dose dependence ([3]; increasing concentrations, FIG. 6) | protein levels of YAP1, BMI1, DCLK1 and BCL2 [4]
1 | CU^FU^FU^FU^FU^FGCGGU^FCU^FGGGCU^FU^FGC (CUUUUUGCGGUCUGGGCUUGC; RNA, [5FU] at 2, 3, 4, 5, 6, 11, 13, 18, 19, backbone not given here) [modified miR-129] | 2 to 30 fold | inhibition of colon cancer cell proliferation | much more potent than 2 μM 5-FU | break downs TS-FdUMP significantly better than 5-FU alone | retain their target specificity | more potent than unmodified (control) miR-129 | nearly completely blocked | over 80% | killed 5-FU resistance cancer stem cells in a dose dependent manner | –
2 | U^FAGCAGCACAU^FAAU^FGGU^FU^FU^FGU^FG (UAGCAGCACAUAAUGGUUUGUG; RNA, [5FU] at 1, 11, 14, 17, 18, 19, 21, backbone not given here) [modified miR-15a] | – | – | – | break downs TS-FdUMP | – | – | – | – | – | reduced
